# Earlier results as cited in patent EP2732812A1, “Pramipexole retard tablet formulation” (Aristo Pharma GmbH, priority 2012, dated 2014).
# Counter-ions that a name gives are not always drawn.
structure (smiles),measurement,setting,value
CCCN[C@H]1CCc2nc(N)sc2C1 [Pramipexoldihydrochlorid Monohydrat],Löslichkeit In Puffer,"buffer, pH-Wert von 2,0 bis 7,4",> 10 mg/mL
same,Löslichkeit In Wasser,in water,> 20 mg/mL
